The values that follow come from ChEMBL document CHEMBL1201862, “PubChem BioAssay data set” (2004).

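96-well plates; 48 h exposure; 5 concentrations. Endpoints by linear interpolation between flanking doses. Not reached: highest tested concentration assigned. Here, GI50 denotes the concentration required for 50% inhibition of growth.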 Calls of active or inactive are those of the source. No stated cut-off is given here; in the data, active = GI50 up to about 1.1 µM and inactive = higher. Where only a bound is given, the exact number is not on record here.

Holding throughout (assay): DTP human tumour cell line panel, 48 h
For assay [1], the system named is 786-0.
The test system of assay [2] is ACHN.
Assay [3] relates to CCRF-CEM.
Assay [4] concerns HOP-62.
Assay [5] relates to K562.
Assay [6] has as its system KM12.
For assay [7], the system named is LOX IMVI.
The test system of assay [8] is MDA-MB-231.
Assay [9] relates to MDA-MB-435.
Assay [10] relates to MDA-N.
The subject of assay [11] is OVCAR-5.
Assay [12] concerns OVCAR-8.
Assay [13] concerns RPMI-8226.
The subject of assay [14] is SK-MEL-2.
Assay [15] concerns SN12C.
The test system of assay [16] is TK-10.
In assay [17] the test system is CAKI-1.
In assay [18] the test system is HCC 2998.
Assay [19] concerns HOP-92.
The test system of assay [20] is NCI-H522.

Consider `COc1cc2oc(=O)cc(C)c2c(OC)c1OC`, for which the GI50 in assay [1], in [2], in [3], in [4], in assay [5] and in assay [6] was > 100 µM (inactive) each time. For the same compound, the GI50 in assay [7], in assay [8], in assay [9], in [10], in [11] and in assay [12] was > 100 µM (inactive) each time. Further, the GI50 in assay [13], in assay [14], in assay [15] and in assay [16] was > 100 µM (inactive) in each case.
Consider `Cc1ccsc1/C=N/Nc1nncc2ccccc12`, for which the GI50 in assay [1] is 90.2 µM (inactive); in assay [2] it was > 100 µM (inactive); in assay [17], > 100 µM (inactive); in [3], 53.2 µM (inactive); in assay [18], > 100 µM (inactive); in assay [4] it was > 100 µM (inactive). For the same compound, the GI50 was > 100 µM (inactive) in assay [19]; > 100 µM (inactive) in assay [5]; > 100 µM (inactive) in assay [6]; 97.1 µM (inactive) in [7]; > 100 µM (inactive) in [8]; > 100 µM (inactive) in assay [9]. For the same compound, the GI50 is > 100 µM (inactive) in assay [10]; > 100 µM (inactive) in assay [11]; > 100 µM (inactive) in assay [12]; 81.8 µM (inactive) in assay [13]; 14.1 µM (inactive) in assay [14]; > 100 µM (inactive) in assay [15]. For the same compound, the GI50 in assay [16] was > 100 µM (inactive).
For the compound `CC(C)Oc1c(O)c2c3c(oc(=O)n3C=CC2c2ccccc2)c1OC(C)C` (centres undefined), the GI50 was 36.1 µM (inactive) in [1]; > 10 µM (inactive) in assay [2]; 29.2 µM (inactive) in assay [17]; 19 µM (inactive) in [18]; 26.7 µM (inactive) in [4]; 30.2 µM (inactive) in assay [19]. Besides, the GI50 in assay [6] was 21.5 µM (inactive); in assay [7], 37.8 µM (inactive); in [8], 30.3 µM (inactive); in assay [9] it was > 10 µM (inactive); in [10] it was 36.3 µM (inactive); in [11] it was 34.4 µM (inactive). Also, the GI50 in [12] was 31.9 µM (inactive); in assay [14], 15.7 µM (inactive); in assay [15], 36.5 µM (inactive); in assay [16], 22.1 µM (inactive).
Take `O=C(CSc1nc2ccc(I)cc2c(=O)n1Cc1ccccc1)NNC(=S)Nc1ccccc1`: the GI50 is 7.4 µM (inactive) in [1]; 18.9 µM (inactive) in assay [2]; 3.33 µM (inactive) in assay [17]; 6.14 µM (inactive) in assay [3]; 43.3 µM (inactive) in assay [18]; 11.8 µM (inactive) in [19]. Also, the GI50 was 11.3 µM (inactive) in assay [5]; 34.4 µM (inactive) in assay [6]; > 100 µM (inactive) in [7]; 41.3 µM (inactive) in assay [9]; 30.3 µM (inactive) in [10]; 4.98 µM (inactive) in [20]. Further, the GI50 in assay [11] was > 100 µM (inactive); in [12], 3.11 µM (inactive); in assay [13], 12.6 µM (inactive); in assay [14] it was 18 µM (inactive); in assay [15] it was 3.9 µM (inactive); in assay [16], 61.8 µM (inactive).
Regarding `COc1ccc(C(C)NNC(=O)c2ccncc2)cc1F` (centres undefined), the GI50 in assay [1], in [2], in [17], in [3], in assay [18] and in assay [4] was > 100 µM (inactive) in each case. Moreover, the GI50 in assay [19], in assay [5], in assay [6], in assay [7], in assay [8] and in assay [9] was > 100 µM (inactive) throughout. Moreover, the GI50 in assay [10], in [11], in assay [12], in assay [13], in assay [14] and in [15] was > 100 µM (inactive) each time. Besides, in assay [16], the GI50 was > 100 µM (inactive).
For `O=C(Nc1ccc(S(=O)(=O)/N=c2\ncccn2C(=O)C(C(F)(F)F)C(F)(F)F)cc1)C(C(F)(F)F)C(F)(F)F`, the GI50 in assay [1] is > 100 µM (inactive); in assay [2], > 100 µM (inactive); in assay [17], 0.0368 µM (active); in assay [3] it was > 100 µM (inactive); in assay [18] it was > 100 µM (inactive); in [4], > 100 µM (inactive). Besides, the GI50 in assay [5], in assay [6], in [7], in [8], in assay [9] and in assay [10] was > 100 µM (inactive) in each case. The GI50 in assay [20], in assay [11], in assay [12], in [13], in [14] and in assay [15] was > 100 µM (inactive) each time. For the same compound, the GI50 in assay [16] is > 100 µM (inactive).
Take `COC(=O)C1=C(C(=O)OC)C2CCC1CC2=O` (centres undefined): the GI50 in [1] is > 100 µM (inactive); in [2], > 100 µM (inactive); in assay [17], > 100 µM (inactive); in assay [3], 31.3 µM (inactive); in assay [18], > 100 µM (inactive); in assay [4], > 100 µM (inactive). Moreover, the GI50 in assay [5] was 49 µM (inactive); in assay [6] it was 65.6 µM (inactive); in assay [7], > 100 µM (inactive); in assay [8], > 100 µM (inactive); in assay [9], > 100 µM (inactive); in [10] it was > 100 µM (inactive). Also, the GI50 is 70.6 µM (inactive) in assay [20]; > 100 µM (inactive) in [11]; > 100 µM (inactive) in assay [12]; > 100 µM (inactive) in assay [13]; > 100 µM (inactive) in [14]; > 100 µM (inactive) in [15]. In addition, the GI50 in [16] was > 100 µM (inactive).
Take `Cc1ccc(C(=O)Nc2ccc(S(=O)(=O)O)c3cc(S(=O)(=O)O)cc(S(=O)(=O)O)c23)cc1NC(=O)Nc1cc(C(=O)Nc2ccc(S(=O)(=O)O)c3cc(S(=O)(=O)O)cc(S(=O)(=O)O)c23)ccc1C`: the GI50 in assay [1], in assay [2], in [17], in assay [3], in [18] and in assay [4] was > 87.5 µM (inactive) in each case. The GI50 in assay [5], in [7], in [8], in assay [9], in assay [10] and in assay [20] was > 87.5 µM (inactive) in each case. Further, the GI50 in assay [11], in [12], in [13], in assay [14], in [15] and in [16] was > 87.5 µM (inactive) each time.

The GI50 is the concentration that inhibits growth by half.
